From article PMC5362899, “Structural insights into the nucleotide base specificity of P2X receptors” (Scientific Reports, 2017)

Molecular target: T1, rat P2X4 rT186A mutant (Rattus norvegicus, UniProt P51577, T186A)
T1 construct: rat P2X4 (NP_113782.1; WT and mutants) were transcribed from pGEMHE plasmids; expressed in transfected cells; host or cells: Xenopus laevis oocytes injected with cRNA from pGEMHE
T1 sequence (P51577 1-388 T186A): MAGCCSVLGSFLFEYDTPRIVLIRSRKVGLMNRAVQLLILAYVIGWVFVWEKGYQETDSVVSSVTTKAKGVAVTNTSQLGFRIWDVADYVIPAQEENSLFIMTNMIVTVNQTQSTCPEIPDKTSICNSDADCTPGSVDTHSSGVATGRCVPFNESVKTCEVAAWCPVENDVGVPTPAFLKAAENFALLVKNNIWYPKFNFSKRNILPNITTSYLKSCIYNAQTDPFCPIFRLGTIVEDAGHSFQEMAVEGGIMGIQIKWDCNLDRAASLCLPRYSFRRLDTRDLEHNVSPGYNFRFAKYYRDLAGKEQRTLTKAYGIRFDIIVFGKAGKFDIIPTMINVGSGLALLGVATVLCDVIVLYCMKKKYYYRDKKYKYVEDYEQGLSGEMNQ
Experiment: Two-Electrode Voltage Clamp recording, rat P2X4 T186A mutant in Xenopus oocytes
Assay type: cell-based
Details: 3 mM ATP, 3 mM CTP (Fig. S3)
Text: To further investigate the functional roles of the residues involved in the base recognition, T189 and R143, we performed an electrophysiological analysis with the rat P2X4, since its electrophysiological properties have been well established. We first assessed the functional role of T189 in zfP2X4 and introduced mutations at the equivalent residue of the rat P2X4 to create three mutants (^rT186A, ^rT186V and ^rT186S; the superscript “r” means rat P2X4). […] Therefore, we examined the ^rWT and the ^rT186S mutant.
The cRNAs encoding zebrafish P2X4 (NP_705939; WT) and rat P2X4 (NP_113782.1; WT and mutants) were transcribed from pGEMHE plasmids, using a mMessage mMachine® T7 ULTRA kit (Ambion, Huntingdon, Cambridgeshire, UK). Xenopus laevis oocytes were prepared, and RNA (100 ng for zebrafish P2X4, and 20 ng for rat P2X4) was injected into the oocytes. The oocytes were incubated at 18 °C in Barth’s solution, containing 88 mM NaCl, 1 mM KCl, 2.4 mM NaHCO3, 10 mM HEPES, 0.33 mM Ca(NO3)2, 0.41 mM CaCl2, and 0.82 mM MgSO4, pH 7.4, supplemented with 50 μg/ml gentamicin, and were used for recording after 2–3 days. […] Oocytes were held at −70 mV with a bath-clamp amplifier (OC-725C, Warner Co., USA), and macroscopic currents were recorded and analyzed using the pClamp 10 software (Molecular Devices, USA)[33][34]. We measured n = 4 for zebrafish P2X4 data and n = 7–9 for rat P2X4 data. […]

Row | SMILES | nucleotide-evoked currents
1 | Nc1ncnc2c1ncn2[C@@H]1O[C@H](COP(=O)(O)OP(=O)(O)OP(=O)(O)O)[C@@H](O)[C@H]1O [ATP, Adenosine 5-triphosphate] | no ATP- and CTP-evoked currents were detected
2 | Nc1ccn([C@@H]2O[C@H](COP(=O)(O)OP(=O)(O)OP(=O)(O)O)[C@@H](O)[C@H]2O)c(=O)n1 [CTP] | no ATP- and CTP-evoked currents were detected
